Data: US12692254B2, “Benzimidazole inhibitors of PAD enzymes” (BRISTOL-MYERS SQUIBB COMPANY, priority 2018, dated 2026)

Biological target: human PAD4 (hPAD4) (Homo sapiens, UniProt Q9UM07)
Experiment: RFMS human PAD4 functional assay (rapid-fire mass spectrum)
Type: biochemical
Settings: 5 nM hPAD4 enzyme, 250 μM BAEE, 50 μM Calcium; 30 min preincubation, 90 min reaction at 37° C.
Procedure, shortened: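 PAD4 (10 nM) preincubated 30 min with compound (top final 50 μM), then BAEE substrate added in pH 7.5 HEPES buffer with DTT, 50 μM calcium, TPEN; 90 min at 37° C. After TCA quench, citrulline derivatized with phenyl glyoxal (4 mM final, 30 min, 37° C) and quantified by RapidFire MS against internal standard.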

Sequence of human PAD4 (hPAD4) (Q9UM07 whole entry): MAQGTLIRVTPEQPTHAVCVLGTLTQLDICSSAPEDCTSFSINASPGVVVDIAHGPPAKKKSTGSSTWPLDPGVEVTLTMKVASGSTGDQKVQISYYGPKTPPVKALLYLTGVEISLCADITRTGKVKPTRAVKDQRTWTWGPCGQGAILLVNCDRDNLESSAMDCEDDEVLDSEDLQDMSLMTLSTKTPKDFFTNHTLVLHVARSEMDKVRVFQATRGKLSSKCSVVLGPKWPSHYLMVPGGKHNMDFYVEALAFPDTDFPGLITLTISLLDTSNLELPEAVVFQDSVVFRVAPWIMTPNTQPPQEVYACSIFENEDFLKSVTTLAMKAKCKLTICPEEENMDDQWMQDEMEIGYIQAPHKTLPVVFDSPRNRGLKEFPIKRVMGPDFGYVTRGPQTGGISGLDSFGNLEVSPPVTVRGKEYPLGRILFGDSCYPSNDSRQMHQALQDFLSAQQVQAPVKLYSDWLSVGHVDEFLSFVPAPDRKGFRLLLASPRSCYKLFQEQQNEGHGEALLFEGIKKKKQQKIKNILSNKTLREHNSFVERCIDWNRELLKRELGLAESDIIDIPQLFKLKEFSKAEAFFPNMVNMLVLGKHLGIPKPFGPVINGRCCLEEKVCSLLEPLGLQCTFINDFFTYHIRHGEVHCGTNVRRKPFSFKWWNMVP

Row | Compound | IC50
1 | COc1cc(C(=O)N2C[C@H]3CC[C@@H]2[C@@H]3N)cc2nc(-c3cc4cccnc4n3CC3CC3)n(CC3CN(C(=O)C4CCCCC4)C3)c12 [Example 110, (1R,4R,7R)-2-{1-[(1-cyclohexanecarbonylazetidin-3-yl)methyl]-2-[1-(cyclopropylmethyl)-1H-pyrrolo[2,3-b]pyridin-2-yl]-7-methoxy-1H-1,3-benzodiazole-5-carbonyl}-2-azabicyclo[2.2.1]heptan-7-amine] | 46 nM
2 | COc1cc(C(=O)N2CC3CCC2[C@@H]3N)cc2nc(-c3cc4cccnc4n3CC3CC3)n(Cc3cnn(-c4cncnc4)c3)c12 (stereo partly drawn) [Example 408, (7R)-2-{2-[1-(cyclopropylmethyl)-1H-pyrrolo[2,3-b]pyridin-2-yl]-7-methoxy-1-{[1-(pyrimidin-5-yl)-1H-pyrazol-4-yl]methyl}-1H-1,3-benzodiazole-5-carbonyl}-2-azabicyclo[2.2.1]heptan-7-amine] | 74 nM
3 | COc1cc(C(=O)N2C[C@H]3CC[C@@H]2[C@@H]3N)cc2nc(-c3cc4ccccc4n3CC3CC3)n(CC3CN(C(=O)c4ccccn4)C3)c12 [Example 167, (1R,4R,7R)-2-{2-[1-(cyclopropylmethyl)-1H-indol-2-yl]-7-methoxy-1-{[1-(pyridine-2-carbonyl)azetidin-3-yl]methyl}-1H-1,3-benzodiazole-5-carbonyl}-2-azabicyclo[2.2.1]heptan-7-amine] | 31 nM
4 | COc1cc(C(=O)N2CC3CCC2[C@@H]3N)cc2nc(-c3cc4cccnc4n3CC3CC3)n(CC3CCN(c4ncccn4)CC3)c12 (stereo partly drawn) [Example 220, (1R,4R,7R)-2-{2-[1-(cyclopropylmethyl)-1H-pyrrolo[2,3-b]pyridin-2-yl]-7-methoxy-1-{[1-(pyrimidin-2-yl)piperidin-4-yl]methyl)-1H-1,3-benzodiazole-5-carbonyl}-2-azabicyc1o[2.2.1]heptan-7-amine] | 72 nM
5 | COc1ncc(-n2cc(Cn3c(-c4cc5ccccc5n4CC4CC4)nc4cc(C(=O)N5CC6CCC5[C@@H]6N)cc(OC)c43)cn2)cc1F (stereo partly drawn) [Example 410, (7R)-2-{2-[1-(cyclopropylmethyl)-1H-indol-2-yl]-1-{[1-(5-fluoro-6-methoxypyridin-3-yl)-1H-pyrazol-4-yl]methyl}-7-methoxy-1H-1,3-benzodiazole-5-carbonyl}-2-azabicyclo[2.2.1]heptan-7-amine] | 87 nM
6 | COc1cc(C(=O)N2C[C@H]3CC[C@@H]2[C@@H]3N)cc2nc(-c3cc4cccnc4n3CC3CC3)n(CC3CCN(c4ccncn4)CC3)c12 [Example 217, (1R,4R,7R)-2-{2-[1-(cyclopropylmethyl)-1H-pyrrolo[2,3-b]pyridin-2-yl]-7-methoxy-1-{[1-(pyrimidin-4-yl)piperidin-4-yl]methyl}-1H-1,3-benzodiazole-5-carbonyl}-2-azabicyclo[2.2.1]heptan-7-amine] | 56 nM
7 | COc1cc(C(=O)N2CC3CCC2[C@@H]3N)cc2nc(-c3cc4ccccc4n3CC3CC3)n(CCc3cn[nH]c3)c12 (stereo partly drawn) [Example 508, (7R)-2-{2-[1-(cyclopropylmethyl)-1H-indol-2-yl]-7-methoxy-1-[2-(1H-pyrazol-4-yl)ethyl]-1H-1,3-benzodiazole-5-carbonyl}-2-azabicyclo[2.2.1]heptan-7-amine] | 289 nM
8 | COC(=O)N1CC(Cn2c(-c3cc4cccnc4n3CC3CC3)nc3cc(C(=O)N4C[C@H]5CC[C@@H]4[C@@H]5N)cc(OC)c32)C1 [Example 132, methyl 3-({5-[(1R,4R,7R)-7-amino-2-azabicyclo[2.2.1]heptane-2-carbonyl]-2-[1-(cyclopropylmethyl)-1H-pyrrolo[2,3-b]pyridin-2-yl]-7-methoxy-1H-1,3-benzodiazol-1-yl}methyl)azetidine-1-carboxylate] | 148 nM
9 | COc1cc(C(=O)N2C[C@H]3CC[C@@H]2[C@@H]3N)cc2nc(-c3cc4ccccc4n3CC3CC3)n(CCC3CCS(=O)(=O)CC3)c12 [Example 245, ((1R,4R,7R)-7-amino-2-azabicyclo[2.2.1]heptan-2-yl)(2-(1-(cyclopropylmethyl)-1H-indol-2-yl)-1-(2-(1,1-dioxidotetrahydro-2H-thiopyran-4-yl)ethyl)-7-methoxy-1H-benzo[d]imidazol-5-yl)methanone] | 20 nM
10 | COc1cc(C(=O)N2CC3CCC2[C@@H]3N)cc2nc(-c3cc4ccccc4n3CC3CC3)n(CC3CN(C(=O)c4cc[n+]([O-])cc4)C3)c12 (stereo partly drawn) [Example 461, 4-[3-({5-[(7R)-7-amino-2-azabicyclo[2.2.1]heptane-2-carobnyl]-2-[1-(cyclopropylmethyl)-1H-indol-2-yl]-7-methoxy-1H-1,3-benzodiazol-1-yl}methyl)azetidine-1-carbonyl]pyridin-1-ium-1-olate] | 68 nM
11 | COc1cc(C(=O)N2CC3CCC2[C@@H]3N)cc2nc(-c3csc4ccc(Cl)cc34)n(CC3CN(C(=O)OCc4ccccc4)C3)c12 (stereo partly drawn) [Example 321, benzyl 3-({5-[(1R,4R,7R)-7-amino-2-azabicyclo[2.2.1]heptane-2-carbonyl]-2-(5-chloro-1-benzothiophen-3-yl)-7-methoxy-1H-1,3-benzodiazo1-1-yl}methyl)azetidine-l-carboxylate] | 1530 nM
12 | COc1cc(C(=O)N2C[C@H]3CC[C@@H]2[C@@H]3N)cc2nc(-c3cc4ccccc4n3CC3CC3)n(Cc3cccs3)c12 [Example 256, (1R,4R,7R)-2-{2-[1-(cyclopropylmethyl)-1H-indol-2-yl]-7-methoxy-1-[(thiophen-2-yl)methyl]-1H-1,3-benzodiazole-5-carbonyl}-2-azabicyclo[2.2.1]heptan-7-amine] | 41 nM
13 | COC(=O)N[C@H]1C[C@H](n2c(-c3cc4cccnc4n3CC3CC3)nc3cc(C(=O)N4CC5CCC4[C@@H]5N)cc(OC)c32)C1 (stereo partly drawn) [Example 296, methyl N-[(1r,3r)-3-{5-[(1R,4R,7R)-7-amino-2-azabicyclo[2.2.1]heptane-2-carbonyl]-2-[1-(cyclopropylmethyl)-1H-pyrrolo[2,3-b]pyridin-2-yl]-7-methoxy-1H-1,3-benzodiazol-1-yl}cyclobutyl]carbamate] | 582 nM
14 | COc1nccc(N2CC(n3c(-c4cc5cccnc5n4CC4CC4)nc4cc(C(=O)N5C[C@H]6CC[C@@H]5[C@@H]6N)cc(OC)c43)C2)n1 [Example 71, (1R,4R,7R)-2-{2-[1-(cyclopropylmethyl)-1H-pyrrolo[2,3-b]pyridin-2-yl]-7-methoxy-1-[1-(2-methoxypyrimidin-4-yl)azetidin-3-yl]-1H-1,3-benzodiazole-5-carbonyl}-2-azabicyclo[2.2.1]heptan-7-amine] | 111 nM
15 | COc1cc(C(=O)N2C[C@H]3CC[C@@H]2[C@@H]3N)cc2nc(-c3cc4cccnc4n3C)n(CC3CN(c4ccnc(C#N)n4)C3)c12 [Example 26, 4-[3-({5-[(1R,4R,7R)-7-amino-2-azabicyclo[2.2.1]heptane-2-carbonyl]-7-methoxy-2-{1-methyl-1H-pyrrolo[2,3-b]pyridin-2-yl}-1H-1,3-benzodiazol-1-yl}methyl)azetidin-1-yl]pyrimidine-2-carbonitrile] | 72 nM
16 | COc1cc(C(=O)N2C[C@H]3CC[C@@H]2[C@@H]3N)cc2nc(-c3cc4ccccc4n3C)n(CC3CN(c4ncccn4)C3)c12 [Example 48, (1R,4R,7R)-2-[7-methoxy-2-(1-methyl-1H-indol-2-yl)-1-{[1-(pyrimidin-2-yl)azetidin-3-yl]methyl}-1H-1,3-benzodiazole-5-carbonyl]-2-azabicyclo[2.2.1]heptan-7-amine] | 122 nM
17 | COc1cc(C(=O)N2CC3CCC2[C@@H]3N)cc2nc(-c3cc4ccccc4n3CC3CC3)n(Cc3cnn(-c4cncc(C#N)c4)c3)c12 (stereo partly drawn) [Example 351, 5-[4-({5-[(7R)-7-amino~2-azabicyclo[2.2.1]heptane-2-carbonyl]-2-[1-(cyclopropylmethyl)-1H-indol-2-yl]-7-methoxy-1H-1,3-benzodiazol-1-yl}methyl)-1H-pyrazol-1-yl]pyridine-3-carbonitrile] | 18 nM
18 | COc1cc(C(=O)N2C[C@H]3CC[C@@H]2[C@@H]3N)cc2nc(-c3cc4cccnc4n3CC3CC3)n(CCNS(C)(=O)=O)c12 [Example 286, N-(2-{5-[(1R,4R,7R)-7-amino-2-azabicyclo[2.2.1]heptane-2-carbonyl]-2-[1-(cyclopropylmethyl)-1H-pyrrolo[2,3-b]pyridin-2-yl]-7-methoxy-1H-1,3-benzodiazol-1-yl}ethyl)methanesulfonamide] | 1190 nM
19 | COc1cccc(-n2cc(Cn3c(-c4cc5cccnc5n4CC4CC4)nc4cc(C(=O)N5CC6CCC5[C@@H]6N)cc(OC)c43)cn2)n1 (stereo partly drawn) [Example 365, (7R)-2-{2-[1-(cyclopropylmethyl)-1H-pyrrolo[2,3-b]pyridin-2-yl]-7-methoxy-1-{[1-(6-methoxypyridin-2-yl)-1H-pyrazol-4-yl]methyl}-1H-1,3-benzodiazole-5-carbonyl}-2-azabicyclo[2.2.1]heptan-7-amine] | 27 nM
20 | COc1cc(C(=O)N2C[C@H](N)C[C@@H](F)C2)cc2nc(-c3cc4ccccc4n3CC3CC3)n(CC3CN(C(=O)c4ccc(C#N)cc4)C3)c12 [Example 90, 4-[3-({5-[(3R,5R)-3-amino-5-fluoropiperidine-1-carbonyl]-2-[1-(cyclopropylmethyl)-1H-indol-2-yl]-7-methoxy-1H-1,3-benzodiazol-1-yl}methyl)azetidine-1-carbonyl]benzonitrile] | 28 nM
21 | COc1cc(C(=O)N2C[C@H]3CC[C@@H]2[C@@H]3N)cc2nc(-c3cc4ccccc4n3CC3CC3)n(Cc3ccnn3C)c12 [Example 265, (1R,4R,7R)-2-{2-[1-(cyclopropylmethyl)-1H-indol-2-yl]-7-methoxy-1-[(1-methyl-1H-pyrazol-5-yl)methyl]-1H-1,3-benzodiazole-5-carbonyl}-2-azabicyclo[2.2.1]heptan-7-amine] | 65 nM
22 | COc1cc(C(=O)N2CC3CCC2[C@@H]3N)cc2nc(-c3cc4cccnc4n3CC3CC3)n([C@H]3C[C@H](NS(C)(=O)=O)C3)c12 (stereo partly drawn) [Example 298, N-[(1r,3r)-3-{5-[(1R,4R,7R)-7-amino-2-azabicyclo[2.2.1]heptane-2-carbonyl]-2-[1-(cyclopropylmethyl)-1H-pyrrolo[2,3-b]pyridin-2-yl]-7-methoxy-1H-1,3-benzodiazol-1-yl}cyclobutyl]methanesulfonamide] | 331 nM
